Experimental data published in patent US20170027973A1, “MODULARION OF INVARIANT NATURAL KILLER T CELLS IN THE TREATMENT OF SEPSIS” (LONDON HEALTH SCIENCES CENTRE RESEARCH INC., priority 2014, published 2017).

Key:
Assay type in all cases: in vivo, mouse
[1] = system: splenic T, B, NK cells and macrophages; experiment: Annexin V / 7-AAD flow cytometry of apoptotic splenic cell populations in septic B6 mice; conditions: for NK cell apoptosis / frequency of apoptotic macrophages: spleen; for frequency of apoptotic macrophages: compared to vehicle-treated mice
Text: FIG. 7: Analysis of apoptotic cell populations in the spleens of septic B6 mice. Splenocytes from sham and septic B6 mice treated with OCH, KRN7000, or vehicle were stained for T, B, and Natural Killer (NK) cells, and macrophages, and further stained for Annexin V (a marker for early apoptosis) and 7-AAD viability dye. Early and late apoptotic cells (Annexin V+7AAD- and Annexin V+7AAD+ cells respectively) were quantified and compared between treatments. […] (n=3-6 mice per group). *p<0.05, **p<0.01, ***p<0.001 by one-way ANOVA with post-hoc Tukey's multiple comparison test. Data are representative of 3 independent experiments.
FIG. 8: Gating strategy to identify the percentage of apoptotic and necrotic immune cell populations. CD3-APC is shown as an example, but the same strategy was used for macrophages (F480-APC), B cells (B220-APC), and Natural Killer (NK) cells (NK1.1-PE).
Mouse hepatic, splenic, and omental cells (1×106), and human PBMCs (1×106) were washed with cold FACS buffer [PBS+2% fetal bovine serum (FBS)+0.1% sodium azide] and incubated with 5 μg/ml anti-mouse CD16/CD32 mAb (clone 2•4G2, Fc-block, eBiosciences) for 20 min on ice before staining with fluorescent monoclonal antibodies (mAbs) diluted in FACS buffer at 4° C. for 30-40 min. Cells were then washed and flow cytometry was performed using FACSCanto II (BD) with FlowJo software (Treestar).

[2] = system: B6 mice with intra-abdominal sepsis (IAS); experiment: Murine intra-abdominal sepsis (IAS) model: survival and murine sepsis score (MSS); conditions: septic B6 mice; for median survival: 4 μg i.p. single dose, vehicle 24 hours; for murine sepsis score (MSS) after 24 h: compared to vehicle treatment
Experimental: Stool from the cecum of euthanized naïve B6 mice was expressed through an enterotomy, homogenized, and suspended in 0.9% normal saline (NS) to produce a fecal slurry at a final concentration of 90 mg/mL, for use in experiments on the same day. Mice were injected intraperitoneally with 500 μL fecal slurry or 0.9% normal saline (sham group). The mice were monitored and scored by two independent investigators—one of whom was blinded to the treatment—every 2-3 hours for the first 12 hours, and then every 1-2 hours thereafter. A murine sepsis score (MSS) was assigned to each mouse based on activity, eye movement, response to exogenous stimuli, breathing rate and pattern, and degree of piloerection (Shrum et al. BMC Research Notes 2014, 7:233). The MSS is a reliable and robust scoring system that has excellent inter-rater reliability (intra-class coefficient=0.96), high internal consistency (Cronbach α=0.92), and correlates with levels of certain pro-inflammatory cytokines such as IFN-γ and IL-1β during the experimental timeline (Shrum et al. BMC Research Notes 2014, 7:233). Mice were euthanized at 24 hours, or earlier if they were deemed to be in significant distress based on our scoring model. Euthanasia was carried out as described above. At the time of sacrifice, intra-cardiac blood was drawn into 1.5 mL micro-centrifuge tubes (BD Biosciences) and centrifuged for serum at 1000×g for 30 minutes at 4° C.
Lyophilized OCH was generously provided by the National Institutes of Health (NIH) Tetramer Core Facility (Emory University, Atlanta, Ga.). Each vial containing 0.2 mg of OCH was solubilized in a vehicle solution containing 1 mL of sterile distilled water, 0.5% Tween 20, 56 mg of sucrose and 7.5 mg of histidine, and stored as aliquots at 4° C. until use. KRN7000 (α-GalCer, C26:0/C18:0) was purchased from Funakoshi Co. Ltd. (Tokyo, Japan), solubilized at 1 mg/ml in dimethylsulphoxide (DMSO), and stored as aliquots at −20° C. until use (29); the control vehicle was 2% DMSO in phosphate-buffered saline (PBS). C20:2 was synthesized and used as previously published (30, 31). For in vivo experiments, mice were injected intraperitoneally (i.p.) with a single dose of glycolipid (4 μg/dose) (30) within twenty minutes after induction of IAS.

[3] = system: splenocyte apoptosis; experiment: Histology (H&E) and TUNEL staining of spleen, liver and omentum of septic B6 mice; conditions: for liver histopathology: among vehicle-, OCH- and KRN-treated mice; for lymphocytes in the omentum: histology; for histopathological scoring of degree of apoptosis in spleen: vehicle-treated: moderate
Text: FIG. 6: Histopathology of septic B6 mice treated with glycolipid agonists of iNKT cells. […] Lymphocyte migration to the omentum is also ameliorated in OCH-treated mice compared to vehicle- and KRN7000-treated mice. There were no histopathological differences in the liver. Images are representative of 4 animals per treatment group (size bar, 50 μm). (b) Histopathological scoring of the degree of apoptosis observed within the spleens of sham and septic B6 mice treated with vehicle, KRN7000, or OCH (n=4 animals per treatment group). Apoptosis was defined histologically by the presence of cell clusters with nuclear shrinkage (karyorrhexis), dark eosinophilic cytoplasm, intact plasma membrane, and relative paucity of surrounding inflammatory cells within the splenic follicles on H&E staining. Scores assigned to each animal by a blinded independent pathologist were as follows: 0 for complete absence of apoptosis; 1 for mild presence of apoptosis (0-15% per follicle); 2 for moderate apoptosis (16-30% per follicle); and 3 for severe apoptosis (31-45% per follicle). ***p<0.0001 by two-tailed Mann Whitney U test.
Liver, spleen, and omentum from sham B6 mice, and vehicle-, OCH-, and KRN7000-treated septic B6 mice were fixed in 10% neutral buffered formalin, embedded in paraffin, sectioned, and stained with H&E or subjected to TUNEL staining using a commercially available kit (Calbiochem). At least four stained sections per spleen from four animals per treatment group were examined and scored for apoptosis by a board-certified veterinary pathologist (Welch) who was blinded to the study design. Apoptosis was defined histologically by the presence of cell clusters with nuclear shrinkage (karyorrhexis), dark eosinophilic cytoplasm, intact plasma membrane, and relative paucity of surrounding inflammatory cells within the splenic follicles on H&E staining (34). Scores assigned to each animal were as follows: 0 for complete absence of apoptosis; 1 for mild presence of apoptosis (0-15% per follicle); 2 for moderate apoptosis (16-30% per follicle); and 3 for severe apoptosis (31-45% per follicle). Photomicrographs were taken using a Nikon DS-Fi1 digital camera using NIS-elements software.

[4] = compared to vehicle- and KRN7000-treated mice

Structure (SMILES) | NK cell apoptosis [1] | frequency of apoptotic macrophages [1] | response to auditory and touch stimuli [2] | median survival [2] [h] | mortality ([2]; by 24 hours) [%] | time to respiratory distress (laboured breathing and reduced respiratory rates) ([2]; most mice, post-sepsis) [h] | murine sepsis score (MSS) after 24 h [2] | liver histopathology [3] | lymphocytes in the omentum [3] | histopathological scoring of degree of apoptosis in spleen [3] | apoptosis of splenic B cells [1, 4] | apoptosis of splenic T cells [1, 4] | survival time ([2]; 4 μg i.p.) [h] | respiratory status ([2]; observed up to 24 hours) | course of MSS over time ([2]; up to 24 hours) | apoptotic cells within the spleen (H&E, TUNEL) [3, 4]
CCCCCCCCCCCCCCCCCCCCCCCCCC(=O)N[C@@H](CO[C@H]1O[C@H](CO)[C@H](O)[C@H](O)[C@H]1O)[C@H](O)[C@H](O)CCCCCCCCCCCCCC [KRN7000, reference compound] | trend toward reduced apoptosis | reduced the frequency of apoptosis significantly | non-responsive | 22 | 100 | ≤ 15 | no statistical differences | did not observe overt differences | significant increase | severe (3 for severe apoptosis (31-45% per follicle)) |  |  |  |  |  | 
CCCCCCCCCCCCCCCCCCCCCCCC(=O)N[C@@H](COC1OC(CO)C(O)C(O)C1O)[C@H](O)[C@H](O)CCCCC (stereo partly drawn) [OCH] | appeared to be reduced | reduced the frequency of apoptosis significantly | more responsive | 28 |  |  | significantly lower | did not observe overt differences | fewer | mild (1 for mild presence of apoptosis (0-15% per follicle)) | significantly reduced | significantly reduced | > 24 | relatively normal respiratory rates | reached a plateau | significant reduction
